pEC50: −log10 of the molar value. Where a name gives a salt, the structure may show the parent alone.
These compounds were tested on recombinant NL4-3 virus (Renilla luciferase in nef, Gag P373S; NLRluc) in MT-2 cells (assay: whole plant or invertebrate). Settings: Renilla, NL43, luciferase activity in cells infected for 4-5 days with NLRluc recombinants, serial dilutions of inhibitor; class symbols (key in Table 1); read-out: EC50.
Format: cell-based, HIV
Outline: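 First, reporter virus was generated in 293T cells and titered on MT-2 cells. Next, MT-2 cells were infected in the presence of serial compound dilutions for 4-5 days. Finally, cells were lysed and luciferase activity was measured to quantify inhibition.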

Question: `C=C(C)[C@@H]1CC[C@]2(NC(=O)CN3CC[C@H](NC(=O)OC(C)(C)C)C3=O)CC[C@]3(C)[C@H](CC[C@@H]4[C@@]5(C)CC=C(c6ccc(C(=O)O)cc6)C(C)(C)[C@@H]5CC[C@]43C)[C@@H]12` [Example 109, 4-((1R,3aS,5aR,5bR,7aR,11aS,11bR,13aR,13bR)-3a-(2-((S)-3-(tert-butoxycarbonylamino)-2-oxopyrrolidin-1-yl)acetamido)-5a,5b,8,8,11a-pentamethyl-1-(prop-1-en-2-yl)-2,3,3a,4,5,5a,5b,6,7,7a,8,11,11a,11b,12,13,13a,13b-octadecahydro-1H-cyclopenta[a]chrysen-9-yl)benzoic acid] was tested. Which pEC50 did it give?
Answer: > 7.00

Question: With `C=C(C)[C@@H]1CC[C@]2(NCCN3CCN(S(=O)(=O)c4ccc(CC)cc4)CC3)CC[C@]3(C)[C@H](CC[C@@H]4[C@@]5(C)CC=C(c6ccc(C(=O)O)cc6)C(C)(C)[C@@H]5CC[C@]43C)[C@@H]12` [Example B40, 4-((1R,3aS,5aR,5bR,7aR,11aS,11bR,13aR,13bR)-3a-((2-(4-((4-ethylphenyl)sulfonyl)piperazin-1-yl)ethyl)amino)-5a,5b,8,8,11a-pentamethyl-1-(prop-1-en-2-yl)-2,3,3a,4,5,5a,5b,6,7,7a,8,11,11a,11b,12,13,13a,13b-octadecahydro-1H-cyclopenta[a]chrysen-9-yl)benzoic acid] as the compound, how does the pEC50 read?
Answer: > 7.00

Question: How did the pEC50 turn out when `C=C(C)[C@@H]1CC[C@]2(NCCN3CCS(=O)(=O)CC3)CC[C@]3(C)[C@H](CC[C@@H]4[C@@]5(C)CC=C(c6ccc(C(=O)O)c(F)c6)C(C)(C)[C@@H]5CC[C@]43C)[C@@H]12` [Example A2, benzoic acid, 4-[(1R,3aS,5aR,5bR,7aR,11aS,11bR,13aR,13bR)-3a-[[2-(1,1-dioxido-4-thiomorpholinyl)ethyl]amino]-2,3,3a,4,5,5a,5b,6,7,7a,8,11,11a,11b,12,13,13a,13b-octadecahydro-5a,5b,8,8,11a-pentamethyl-1-(1-methylethenyl)-1H-cyclopenta[a]chrysen-9-yl]-2-fluoro-, HCl] was run?
Answer: > 7.00

Question: With `C=C(C)[C@@H]1CC[C@]2(NC(=O)Cn3cnnn3)CC[C@]3(C)[C@H](CC[C@@H]4[C@@]5(C)CC=C(c6ccc(C(=O)O)cc6)C(C)(C)[C@@H]5CC[C@]43C)[C@@H]12` [Example 103, 4-((1R,3aS,5aR,5bR,7aR,11aS,11bR,13aR,13bR)-3a-(2-(1H-tetrazol-1-yl)acetamido)-5a,5b,8,8,11a-pentamethyl-1-(prop-1-en-2-yl)-2,3,3a,4,5,5a,5b,6,7,7a,8,11,11a,11b,12,13,13a,13b-octadecahydro-1H-cyclopenta[a]chrysen-9-yl)benzoic acid] as the compound, how does the pEC50 read?
Answer: > 7.00

Question: `C=C(C)[C@@H]1CC[C@]2(NC(=O)N3CCN(C(=O)OC(C)(C)C)CC3CC(=O)O)CC[C@]3(C)[C@H](CC[C@@H]4[C@@]5(C)CC=C(c6ccc(C(=O)O)cc6)C(C)(C)[C@@H]5CC[C@]43C)[C@@H]12` (stereo partly drawn) [Example 59, 4-((1R,3aS,5aR,5bR,7aR,11aS,11bR,13aR,13bR)-3a-(4-(tert-butoxycarbonyl)-2-(carboxymethyl)piperazine-1-carboxamido)-5a,5b,8,8,11a-pentamethyl-1-(prop-1-en-2-yl)-2,3,3a,4,5,5a,5b,6,7,7a,8,11,11a,11b,12,13,13a,13b-octadecahydro-1H-cyclopenta[a]chrysen-9-yl)benzoic acid] was tested. Which pEC50 did it give?
Answer: > 7.00

Question: With `C=C(C)[C@@H]1CC[C@]2(NCCN3CCN(C(=O)C(C)C)CC3)CC[C@]3(C)[C@H](CC[C@@H]4[C@@]5(C)CC=C(c6ccc(C(=O)O)cc6)C(C)(C)[C@@H]5CC[C@]43C)[C@@H]12` [Example B64, 4-((1R,3aS,5aR,5bR,7aR,11aS,11bR,13aR,13bR)-3a-((2-(4-isobutyrylpiperazin-1-yl)ethyl)amino)-5a,5b,8,8,11a-pentamethyl-1-(prop-1-en-2-yl)-2,3,3a,4,5,5a,5b,6,7,7a,8,11,11a,11b,12,13,13a,13b-octadecahydro-1H-cyclopenta[a]chrysen-9-yl)benzoic acid] as the compound, how does the pEC50 read?
Answer: > 7.00

Question: How did the pEC50 turn out when `C=C(C)[C@@H]1CC[C@]2(NCCN3CCN(S(=O)(=O)CCC)CC3)CC[C@]3(C)[C@H](CC[C@@H]4[C@@]5(C)CC=C(c6ccc(C(=O)O)cc6)C(C)(C)[C@@H]5CC[C@]43C)[C@@H]12` [Example B23, 4-((1R,3aS,5aR,5bR,7aR,11aS,11bR,13aR,13bR)-5a,5b,8,8,11a-pentamethyl-1-(prop-1-en-2-yl)-3a-((2-(4-(propylsulfonyl)piperazin-1-yl)ethyl)amino)-2,3,3a,4,5,5a,5b,6,7,7a,8,11,11a,11b,12,13,13a,13b-octadecahydro-1H-cyclopenta[a]chrysen-9-yl)benzoic acid] was run?
Answer: > 7.00

Question: `C=C(C)[C@@H]1CC[C@]2(NC(=O)CN(C(C)C)C(C)C)CC[C@]3(C)[C@H](CC[C@@H]4[C@@]5(C)CC=C(c6ccc(C(=O)O)cc6)C(C)(C)[C@@H]5CC[C@]43C)[C@@H]12` [Example 123, 4-((1R,3aS,5aR,5bR,7aR,11aS,11bR,13aR,13bR)-3a-(2-(diisopropylamino)acetamido)-5a,5b,8,8,11a-pentamethyl-1-(prop-1-en-2-yl)-2,3,3a,4,5,5a,5b,6,7,7a,8,11,11a,11b,12,13,13a,13b-octadecahydro-1H-cyclopenta[a]chrysen-9-yl)benzoic acid] was tested. Which pEC50 did it give?
Answer: > 7.00

Question: `C=C(C)[C@@H]1CC[C@]2(NC(=O)C(=O)O)CC[C@]3(C)[C@H](CC[C@@H]4[C@@]5(C)CC=C(c6ccc(C(=O)O)cc6)C(C)(C)[C@@H]5CC[C@]43C)[C@@H]12` [Example 130-1, 4-((1R,3aS,5aR,5bR,7aR,11aS,11bR,13aR,13bR)-3a-(carboxyformamido)-5a,5b,8,8,11a-pentamethyl-1-(prop-1-en-2-yl)-2,3,3a,4,5,5a,5b,6,7,7a,8,11,11a,11b,12,13,13a,13b-octadecahydro-1H-cyclopenta[a]chrysen-9-yl)benzoic acid] was tested. Which pEC50 did it give?
Answer: < 7.00

Question: With `C=C(C)[C@@H]1CC[C@]2(NC(=O)NCCCN(C)S(C)(=O)=O)CC[C@]3(C)[C@H](CC[C@@H]4[C@@]5(C)CC=C(c6ccc(C(=O)O)cc6)C(C)(C)[C@@H]5CC[C@]43C)[C@@H]12` [Example 49, 4-((1R,3aS,5aR,5bR,7aR,11aS,11bR,13aR,13bR)-5a,5b,8,8,11a-pentamethyl-3a-(3-(3-(N-methylmethylsulfonamido)propyl)ureido)-1-(prop-1-en-2-yl)-2,3,3a,4,5,5a,5b,6,7,7a,8,11,11a,11b,12,13,13a,13b-octadecahydro-1H-cyclopenta[a]chrysen-9-yl)benzoic acid] as the compound, how does the pEC50 read?
Answer: > 7.00

Question: `C=C(C)[C@@H]1CC[C@]2(NC(=O)[C@@H]3C[C@H](NC(=O)OCc4ccccc4)C3(C)C)CC[C@]3(C)[C@H](CC[C@@H]4[C@@]5(C)CC=C(c6ccc(C(=O)O)cc6)C(C)(C)[C@@H]5CC[C@]43C)[C@@H]12` [Example 130-3, 4-((1R,3aS,5aR,5bR,7aR,11aS,11bR,13aR,13bR)-3a-((1R,3S)-3-(((benzyloxy)carbonyl)amino)-2,2-dimethylcyclobutanecarboxamido)-5a,5b,8,8,11a-pentamethyl-1-(prop-1-en-2-yl)-2,3,3a,4,5,5a,5b,6,7,7a,8,11,11a,11b,12,13,13a,13b-octadecahydro-1H-cyclopenta[a]chrysen-9-yl)benzoic acid] was tested. Which pEC50 did it give?
Answer: > 7.00

Question: How did the pEC50 turn out when `C=C(C)[C@@H]1CC[C@]2(NC(=O)CN(C)C3CCS(=O)(=O)C3)CC[C@]3(C)[C@H](CC[C@@H]4[C@@]5(C)CC=C(c6ccc(C(=O)O)cc6)C(C)(C)[C@@H]5CC[C@]43C)[C@@H]12` (stereo partly drawn) [Example 100, benzoic acid, 4-[(1R,3aS,5aR,5bR,7aR,11aS,11bR,13aR,13bR)-2,3,3a,4,5,5a,5b,6,7,7a,8,11,11a,11b,12,13,13a,13b-octadecahydro-5a,5b,8,8,11a-pentamethyl-1-(1-methylethenyl)-3a-[[[methyl(tetrahydro-1,1-dioxido-3-thienyl)amino]acetyl]amino]-1H-cyclopenta[a]chrysen-9-yl]] was run?
Answer: > 7.00

Question: With `C=C(C)[C@@H]1CC[C@]2(NC(=O)N3CCCN(CCO)CC3)CC[C@]3(C)[C@H](CC[C@@H]4[C@@]5(C)CC=C(c6ccc(C(=O)O)cc6)C(C)(C)[C@@H]5CC[C@]43C)[C@@H]12` [Example 51, 4-((1R,3aS,5aR,5bR,7aR,11aS,11bR,13aR,13bR)-3a-(4-(2-hydroxyethyl)-1,4-diazepane-1-carboxamido)-5a,5b,8,8,11a-pentamethyl-1-(prop-1-en-2-yl)-2,3,3a,4,5,5a,5b,6,7,7a,8,11,11a,11b,12,13,13a,13b-octadecahydro-1H-cyclopenta[a]chrysen-9-yl)benzoic acid] as the compound, how does the pEC50 read?
Answer: > 7.00

Question: With `C=C(C)[C@@H]1CC[C@]2(NCc3ccsc3)CC[C@]3(C)[C@H](CC[C@@H]4[C@@]5(C)CC=C(c6ccc(C(=O)O)cc6)C(C)(C)[C@@H]5CC[C@]43C)[C@@H]12` [Example 158, 4-((1R,3aS,5aR,5bR,7aR,11aS,11bR,13aR,13bR)-5a,5b,8,8,11a-pentamethyl-1-(prop-1-en-2-yl)-3a-(thiophen-3-ylmethylamino)-2,3,3a,4,5,5a,5b,6,7,7a,8,11,11a,11b,12,13,13a,13b-octadecahydro-1H-cyclopenta[a]chrysen-9-yl)benzoic acid] as the compound, how does the pEC50 read?
Answer: > 7.00

Same assay, conditions: Renilla, NL43, luciferase activity in cells infected for 4-5 days with NLRluc recombinants, serial dilutions of inhibitor; numeric values; read-out: EC50

Question: With `C=C(C)[C@@H]1CC[C@]2(NC(=O)C(=O)NC3CCCCC3)CC[C@]3(C)[C@H](CC[C@@H]4[C@@]5(C)CC=C(c6ccc(C(=O)O)cc6)C(C)(C)[C@@H]5CC[C@]43C)[C@@H]12` [Example 80, 4-((1R,3aS,5aR,5bR,7aR,11aS,11bR,13aR,13bR)-3a-(2-(cyclohexylamino)-2-oxoacetamido)-5a,5b,8,8,11a-pentamethyl-1-(prop-1-en-2-yl)-2,3,3a,4,5,5a,5b,6,7,7a,8,11,11a,11b,12,13,13a,13b-octadecahydro-1H-cyclopenta[a]chrysen-9-yl)benzoic acid] as the compound, how does the pEC50 read?
Answer: 6.96

Source: US20140343000A1 (priority 2011, published 2014)
